Columns and labels:
[1] = test system: acetylated tubulin, acetylated histone H3, acetylated histone H4 and p21 in MDA-MB-231 cell lines; assay: Western blot analysis in MDA-MB-231 cell line; type: cell-based
U937 xenograft = U937 xenograft model in vivo antitumor assay
[2] = test system: class IIa HDACs (MDA-MB-231 cell lysate); details: class IIa-specific substrate, NA: not active at 10 μM

**Q.** With `CCCC(CCC)C(=O)N[C@H](COc1ccc(/C=C/C(=O)NO)cc1OC)Cc1c[nH]c2ccccc12` [Compound 17a] as the compound, how does the “effect on acetylated tubulin level” value ([1]; 1 μM, 3 h and 24 h, MDA-MB-231, compared with SAHA) read?
**A.** almost no effect

**Q.** And the “effect on histone H4 acetylation with time” value ([1]; 1 μM, 3 h vs 24 h, MDA-MB-231)?
**A.** maintained even increased

**Q.** And the “effects on the levels of histone acetylation and p21 expression” value ([1]; 1 μM, MDA-MB-231, especially after 24 h of treatment)?
**A.** comparable even superior to SAHA

**Q.** And the “cell permeability (by monitoring intracellular acetylation levels)” value ([1]; MDA-MB-231 cell line)?
**A.** cell permeable

**Q.** And the “toxic signs in liver and spleen” value (U937 xenograft; U937 xenograft mice, once daily by oral gavage for three weeks)?
**A.** no evident toxic signs in liver and spleen

**Q.** What about the body weight loss (U937 xenograft; mouse, in vivo, po) of the same compound?
**A.** no significant body weight loss

**Q.** And the “IC50 class IIa cell lysate” value [2]?
**A.** no obvious inhibition

Source: paper PMC3593252 (ACS medicinal chemistry letters, 2013)
